Source: patent US20190224166A1, “Compositions and Methods for Treating Muscle Loss” (Augusta University Research Institute, Inc., priority 2018, published 2019)

System: quadriceps muscle
Test: Proteomic analysis of quadriceps muscle of aged mice treated with 1-methyl-D-tryptophan (Table 1, TOPPGENE enrichment)
Format: in vivo
Procedure: Female mice 22 months of age were obtained from the National Institute on Aging and treated with saline (vehicle) or 1-methyl-D-tryptophan (1-MT, Sigma, 452483, lot#MKBZ1441V) at a low dose (10 mg/kg BW) or at a high dose (100 mg/kg BW). Mice were treated daily for 4 weeks. Treatments were administered i.p. with an injection volume of 0.2 ml following IACUC approved procedures. Mice were euthanized by CO2 overdose and muscles harvested for analysis. One quadriceps muscle was snap frozen for proteomics and the other quadriceps muscle fixed in buffered formalin for paraffin embedding and trichrome staining. The tibialis anterior was placed in PBS for amplex red assay.
The IDO inhibitor, 1-methyl-D-tryptophan, blocks kynurenine production and reduces levels of ROS in muscle.

## Cn1cc(C[C@@H](N)C(=O)O)c2ccccc21 [1MT]
P62962, GN = Pfn1
  1MT vs Control: Profilin-1: 0.8333
P63038, GN = Hspd1
  1MT vs Control: 60 kDa heat shock protein, mitochondrial: 0.2222
P63242, GN = Eif5a
  1MT vs Control: Eukaryotic translation initiation factor 5A-1: 0.8936
P68040, GN = Gnb2l1
  1MT vs Control: Guanine nucleotide-binding protein subunit beta-2-like 1: 0.8889
P70349, GN = Hint1
  1MT vs Control: Histidine triad nucleotide-binding protein 1: 0.8667
P70404, GN = Idh3g
  1MT vs Control: Isocitrate dehydrogenase [NAD] subunit gamma 1, mitochondrial: 0.4286
P70695, GN = Fbp2
  1MT vs Control: Fructose-1,6-bisphosphatase isozyme 2: 0.6078
P97355, GN = Sms
  1MT vs Control: Spermine synthase: 0.5455
P97443, GN = Smyd1
  1MT vs Control: Histone-lysine N-methyltransferase Smyd1: 0.8143
P97457, GN = Mylpf
  1MT vs Control: Myosin regulatory light chain 2, skeletal muscle isoform: 0.6453
P97807, GN = Fh
  1MT vs Control: Fumarate hydratase, mitochondrial: 0.7414
P97823, GN = Lypla1
  1MT vs Control: Acyl-protein thioesterase 1: 0.5
P99027, GN = Rplp2
  1MT vs Control: 60S acidic ribosomal protein P2: 0.7143
Q1XH17, GN = Trim72
  1MT vs Control: Tripartite motif-containing protein 72: 0.9048
Q3TMH2, GN = Scrn3
  1MT vs Control: Secernin-3: 0.6667
Q3TMP8, GN = Tmem38a
  1MT vs Control: Trimeric intracellular cation channel type A: 0.6923
Q3V1D3, GN = Ampd1
  1MT vs Control: AMP deaminase 1: 0.86
Q6P5E4, GN = Uggt1
  1MT vs Control: UDP-glucose: glycoprotein glucosyltransferase 1: 0.2857
Q6P8J7, GN = Ckmt2
  1MT vs Control: Creatine kinase S-type, mitochondrial: 0.3977
Q6PIE5, GN = Atp1a2
  1MT vs Control: Sodium/potassium-transporting ATPase subunit alpha-2: 0.5143
Q8BH59, GN = Slc25a12
  1MT vs Control: Calcium-binding mitochondrial carrier protein Aralar1: 0.3939
Q8BH64, GN = Ehd2
  1MT vs Control: EH domain-containing protein 2: 0.5714
Q8BMF4, GN = Dlat
  1MT vs Control: Dihydrolipoyllysine-residue acetyltransferase component of pyruvate dehydrogenase complex, mitochondrial: 0.6053
Q8BMS1, GN = Hadha
  1MT vs Control: Trifunctional enzyme subunit alpha, mitochondrial: 0.561
Q8BU30, GN = Iars
  1MT vs Control: Isoleucine--tRNA ligase, cytoplasmic: 0.75
Q8BZA9, GN = Tigar
  1MT vs Control: Fructose-2,6-bisphosphatase TIGAR: 0.6944
Q8CI51, GN = Pdlim5
  1MT vs Control: PDZ and LIM domain protein 5: 0.6667
Q8K2B3, GN = Sdha
  1MT vs Control: Succinate dehydrogenase [ubiquinone] flavoprotein subunit, mitochondrial: 0.7037
Q8K010, GN = Oplah
  1MT vs Control: 5-oxoprolinase: 0.75
Q8QZT1, GN = Acat1
  1MT vs Control: Acetyl-CoA acetyltransferase, mitochondrial: 0.9231
Q8R429, GN = Atp2a1
  1MT vs Control: Sarcoplasmic/endoplasmic reticulum calcium ATPase 1: 0.9045
Q8VCT4, GN = Ces1d
  1MT vs Control: Carboxylesterase 1D: 0.8571
Q8VEM8, GN = Slc25a3
  1MT vs Control: Phosphate carrier protein, mitochondrial: 0.3333
Q8VHN7, GN = Gpr98
  1MT vs Control: G-protein coupled receptor 98: 0.6667
Q9CQ62, GN = Decr1
  1MT vs Control: 2,4-dienoyl-CoA reductase, mitochondrial: 0.375
Q9CWJ9, GN = Atic
  1MT vs Control: Bifunctional purine biosynthesis protein PURH: 0.8571
Q9CZ13, GN = Uqcrc1
  1MT vs Control: Cytochrome b-c1 complex subunit 1, mitochondrial: 0.25
Q9CZU6, GN = Cs
  1MT vs Control: Citrate synthase, mitochondrial: 0.5333
Q9D0K2, GN = Oxct1
  1MT vs Control: Succinyl-CoA: 3-ketoacid coenzyme A transferase 1, mitochondrial: 0.75
Q9D1A2, GN = Cndp2
  1MT vs Control: Cytosolic non-specific dipeptidase: 0.8
Q9D1G3, GN = Hhatl
  1MT vs Control: Protein-cysteine N-palmitoyltransferase HHAT-like protein: 0.4545
Q9D2G2, GN = Dlst
  1MT vs Control: Dihydrolipoyllysine-residue succinyltransferase component of 2-oxoglutarate dehydrogenase complex, mitochondrial: 0.4857
Q9D7G0, GN = Prps1
  1MT vs Control: Ribose-phosphate pyrophosphokinase 1: 0.8723
Q9D8E6, GN = Rpl4
  1MT vs Control: 60S ribosomal protein L4: 0.6667
Q9D051, GN = Pdhb
  1MT vs Control: Pyruvate dehydrogenase E1 component subunit beta, mitochondrial: 0.6279
Q9DAK9, GN = Phpt1
  1MT vs Control: 14 kDa phosphohistidine phosphatase: 0.75
Q9DB77, GN = Uqcrc2
  1MT vs Control: Cytochrome b-c1 complex subunit 2, mitochondrial: 0.3958
Q9DBB8, GN = Dhdh
  1MT vs Control: Trans-1,2-dihydrobenzene-1,2-diol dehydrogenase: 0.8333
Q9DCW4, GN = Etfb
  1MT vs Control: Electron transfer flavoprotein subunit beta: 0.5
Q9EQ20, GN = Aldh6a1
  1MT vs Control: Methylmalonate-semialdehyde dehydrogenase [acylating], mitochondrial: 0.65
Q9JMA1, GN = Usp14
  1MT vs Control: Ubiquitin carboxyl-terminal hydrolase 14: 0.8
Q9QUR6, GN = Prep
  1MT vs Control: Prolyl endopeptidase: 0.5
Q9QXS1, GN = Plec
  1MT vs Control: Plectin: 0.4894
Q9QY76, GN = Vapb
  1MT vs Control: Vesicle-associated membrane protein-associated protein B: 0.5333
Q9R0P3, GN = Esd
  1MT vs Control: S-formylglutathione hydrolase: 0.8929
Q9R1P4, GN = Psma1
  1MT vs Control: Proteasome subunit alpha type-1: 0.375
Q9WUB3, GN = Pygm
  1MT vs Control: Glycogen phosphorylase, muscle form: 0.9185
Q9Z1E4, GN = Gys1
  1MT vs Control: Glycogen [starch] synthase, muscle: 0.6275
Q9Z2I9, GN = Sucla2
  1MT vs Control: Succinyl-CoA ligase [ADP-forming] subunit beta, mitochondrial: 0.52
Q78ZA7, GN = Nap1l4
  1MT vs Control: Nucleosome assembly protein 1-like 4: 0.8571
Q91X72, GN = Hpx
  1MT vs Control: Hemopexin: 0.7391
Q91YT0, GN = Ndufv1
  1MT vs Control: NADH dehydrogenase [ubiquinone] flavoprotein 1, mitochondrial: 0.4
